Here are results for nine molecules from US20220370440A1 (Lead Discovery Center GmbH, priority 2018, published 2022).

Data set [1] concerns the target Her2 Exon 20 INSYVMA Ba/F3 (Homo sapiens, UniProt P04626, DUP772-775, cells depend on it). Put plainly: Her2 Exon 20 INSYVMA Ba/F3 CellTiter-Glo. The data set is classed as cell-based. Conditions: CellTiter-Glo, 72 h, read-out: Her2 Exon 20 INSYVMA Ba/F3 CTG IC50. The procedure, abridged:
(§1)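 IC50 values come from dose–response fits of CellTiter-Glo luminescence in Ba/F3 cells treated with compound for 72 h at 37 °C, 5% CO2. Vehicle (DMSO) and 10 μM staurosporine wells set the assay window, with Z′ ≥0.5 required.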

Data set [2] deals with H1781. As to the kind of experiment: H1781 CellTiter-Glo. The data set is classed as cell-based. Particulars: NCI-H1781; 72 h compound incubation; read-out: H1781 CTG IC50. The protocol:
2. Measurement of Cellular Activity
The CellTiter-Glo Luminescent Cell Viability Assay (Promega) is a homogeneous method of determining the number of viable cells in culture. It is based on quantification of ATP, indicating the presence of metabolically active cells. Cells are seeded on day 1 at cell numbers that assure assay linearity and optimal signal intensity. After incubation for 24 h in humidified chambers at 37° C. and 5% CO2, compounds in DMSO are added at different concentrations. Cells are further incubated for 72 h at 37° C. and 5% CO2. Cells treated with the compound vehicle DMSO are used as positive controls and cells treated with 10 μM Staurosporine serve as negative controls. At day 5 the CellTiter Glo Reagent is prepared according to the instructions of the kit (Promega Inc.): Reagent is mixed 1:1 with cell culture medium. Thereon, mixture and assay plates are equilibrated at room temperature for 20 min. Equal volumes of the reagent-medium-mixture is added to the volume of culture medium present in each well. The plates are mixed at ˜200 rpm for 2 minutes on an orbital shaker. The microplates are then incubated at room temperature for 10 minutes for stabilization of the luminescent signal. Following incubation the luminescence is recorded on a Victor microplate reader (Perkin Elmer) using a 200 ms integration time. The data is then analyzed with Excel using the XLFIT Plugin (dose response Fit 205) for IC50-determination. As quality control the Z′-factor is calculated from 16 positive and negative control values. Only assay results showing a Z′-factor ≥0.5 are used for further analysis.
(§2) Inhibition is indicated as […] [nM] (“−”=not measured). Compounds having an activity designated as “A” provided an IC50≤100 nM; compounds having an activity designated as “B” provided an 100 nM<IC50≤500 nM; compounds having an activity designated as “C” provided an 500 nM<IC50≤1000 nM; compounds having an activity designated as “D” provided an 1000 nM<IC50≤100000 nM; and compounds having an activity designated as “E” provided an IC50>10000 nM.
(In general: In ATP-based viability assays light output follows the ATP content of the culture.)

In data set [3] the test system is A431. As to the kind of experiment: A431 CellTiter-Glo. The data set is classed as cell-based. Conditions: Homo sapiens, A-431; 72 h compound incubation; read-out: A431 CTG IC50. The procedure, abridged: (§3)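 Seed cells; incubate 24 h at 37° C., 5% CO2; add compound in DMSO over a concentration range; incubate 72 h; add CellTiter-Glo reagent, stabilise 10 min at room temperature; read luminescence; fit IC50.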

Data set [4] in a line: Metabolic stability in mouse liver microsomes without cofactor NADPH. Type of data set: in vitro ADME. Particulars: 3 μM test compound, mouse liver microsomes, without NADPH, 50 min, 37° C., LC-MS/MS. The gist of the method: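 Cofactor-free incubation: no NADPH added to mouse liver microsomes, with compound at 3 μM and 37° C. Remaining parent was quantified by LC-MS/MS at time points up to 50 minutes to track depletion.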
In general terms: Microsomes from liver hold many membrane-bound enzymes, among them those of drug oxidation.

Data set [5] concerns the target EGFR wt (Homo sapiens, UniProt P00533). Put plainly: EGFR wt Lance assay. Type of data set: biochemical. As to the method: as §2
The target of data set [6] is EGFR T790ML858R (Homo sapiens, UniProt P00533, L858R/T790M). As to the kind of experiment: EGFR T790ML858R Lance assay. The data set is classed as biochemical. The protocol:
as §2

Data set [7] has as its target T1, HER2 INS YVMA (Homo sapiens, UniProt P04626, INS775YVMA).
T1 construct: purchased DPF
Put plainly: Lance Kinase Activity Assay, HER2 INS YVMA (Her2 Exon 20 INSYVMA Lance). The data set is classed as biochemical. Conditions: biochemical Lance assay. The gist of the method: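 IC50 was fitted to sigmoidal curves of TR-FRET signal (665 and 615 nm emission after 340 nm excitation) from an Eu anti-phospho antibody binding the phosphorylated ULight peptide. The ATP-started reaction ran 1 h at RT and was then quenched with 10 mM EDTA plus antibody for a further 1 h. Compounds were tested as 8-point, 3-fold dilutions.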

In data set [8] the test system is H1975. As to the kind of experiment: H1975 CellTiter-Glo. Particulars: Homo sapiens, NCI-H1975; 72 h compound incubation; read-out: H1975 CTG IC50. Type of data set: cell-based. The gist of the method: as §3
For data set [9], the target named is EGFR Exon 20 INSNPH Ba/F3 (Homo sapiens, UniProt P00533, DUP771-773, cells depend on it). Put plainly: EGFR Exon 20 INSNPH Ba/F3 CellTiter-Glo. The data set is classed as cell-based. Conditions: CellTiter-Glo, 72 h, read-out: EGFR Exon 20 INSNPH Ba/F3 CTG IC50. The gist of the method:
as §1

Chain of EGFR Exon 20 INSNPH Ba/F3 (P00533 with tags, fused parts or gaps DUP771-773): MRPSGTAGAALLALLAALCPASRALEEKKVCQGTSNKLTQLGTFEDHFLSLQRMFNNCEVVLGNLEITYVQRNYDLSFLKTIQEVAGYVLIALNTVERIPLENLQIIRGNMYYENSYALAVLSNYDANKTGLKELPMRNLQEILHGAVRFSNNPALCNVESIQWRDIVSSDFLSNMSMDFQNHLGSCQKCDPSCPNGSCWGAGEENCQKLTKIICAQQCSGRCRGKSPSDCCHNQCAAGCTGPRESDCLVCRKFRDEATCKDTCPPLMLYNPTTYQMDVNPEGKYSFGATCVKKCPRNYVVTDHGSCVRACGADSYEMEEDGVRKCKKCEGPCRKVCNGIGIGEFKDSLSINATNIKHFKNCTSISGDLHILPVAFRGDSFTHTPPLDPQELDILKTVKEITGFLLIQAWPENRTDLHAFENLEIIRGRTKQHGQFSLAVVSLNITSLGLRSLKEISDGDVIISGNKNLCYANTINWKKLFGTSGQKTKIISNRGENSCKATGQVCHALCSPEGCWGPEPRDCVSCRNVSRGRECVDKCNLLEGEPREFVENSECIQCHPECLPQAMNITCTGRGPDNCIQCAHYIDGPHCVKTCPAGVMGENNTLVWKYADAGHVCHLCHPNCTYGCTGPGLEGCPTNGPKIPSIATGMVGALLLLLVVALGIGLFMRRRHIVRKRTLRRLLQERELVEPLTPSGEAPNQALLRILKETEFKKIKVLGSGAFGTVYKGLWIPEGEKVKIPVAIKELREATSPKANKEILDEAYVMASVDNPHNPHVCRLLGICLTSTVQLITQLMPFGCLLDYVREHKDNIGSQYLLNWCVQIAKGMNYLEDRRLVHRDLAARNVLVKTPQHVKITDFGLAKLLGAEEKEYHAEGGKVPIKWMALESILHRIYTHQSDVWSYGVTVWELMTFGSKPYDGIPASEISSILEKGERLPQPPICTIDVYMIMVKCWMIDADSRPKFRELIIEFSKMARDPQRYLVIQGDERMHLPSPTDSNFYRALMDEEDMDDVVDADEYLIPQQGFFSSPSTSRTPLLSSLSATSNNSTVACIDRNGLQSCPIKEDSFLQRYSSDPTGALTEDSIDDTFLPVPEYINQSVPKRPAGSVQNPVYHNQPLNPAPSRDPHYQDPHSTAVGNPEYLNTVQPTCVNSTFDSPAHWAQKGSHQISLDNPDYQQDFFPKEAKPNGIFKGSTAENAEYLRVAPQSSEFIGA
Chain of Her2 Exon 20 INSYVMA Ba/F3 (P04626 with tags, fused parts or gaps DUP772-775): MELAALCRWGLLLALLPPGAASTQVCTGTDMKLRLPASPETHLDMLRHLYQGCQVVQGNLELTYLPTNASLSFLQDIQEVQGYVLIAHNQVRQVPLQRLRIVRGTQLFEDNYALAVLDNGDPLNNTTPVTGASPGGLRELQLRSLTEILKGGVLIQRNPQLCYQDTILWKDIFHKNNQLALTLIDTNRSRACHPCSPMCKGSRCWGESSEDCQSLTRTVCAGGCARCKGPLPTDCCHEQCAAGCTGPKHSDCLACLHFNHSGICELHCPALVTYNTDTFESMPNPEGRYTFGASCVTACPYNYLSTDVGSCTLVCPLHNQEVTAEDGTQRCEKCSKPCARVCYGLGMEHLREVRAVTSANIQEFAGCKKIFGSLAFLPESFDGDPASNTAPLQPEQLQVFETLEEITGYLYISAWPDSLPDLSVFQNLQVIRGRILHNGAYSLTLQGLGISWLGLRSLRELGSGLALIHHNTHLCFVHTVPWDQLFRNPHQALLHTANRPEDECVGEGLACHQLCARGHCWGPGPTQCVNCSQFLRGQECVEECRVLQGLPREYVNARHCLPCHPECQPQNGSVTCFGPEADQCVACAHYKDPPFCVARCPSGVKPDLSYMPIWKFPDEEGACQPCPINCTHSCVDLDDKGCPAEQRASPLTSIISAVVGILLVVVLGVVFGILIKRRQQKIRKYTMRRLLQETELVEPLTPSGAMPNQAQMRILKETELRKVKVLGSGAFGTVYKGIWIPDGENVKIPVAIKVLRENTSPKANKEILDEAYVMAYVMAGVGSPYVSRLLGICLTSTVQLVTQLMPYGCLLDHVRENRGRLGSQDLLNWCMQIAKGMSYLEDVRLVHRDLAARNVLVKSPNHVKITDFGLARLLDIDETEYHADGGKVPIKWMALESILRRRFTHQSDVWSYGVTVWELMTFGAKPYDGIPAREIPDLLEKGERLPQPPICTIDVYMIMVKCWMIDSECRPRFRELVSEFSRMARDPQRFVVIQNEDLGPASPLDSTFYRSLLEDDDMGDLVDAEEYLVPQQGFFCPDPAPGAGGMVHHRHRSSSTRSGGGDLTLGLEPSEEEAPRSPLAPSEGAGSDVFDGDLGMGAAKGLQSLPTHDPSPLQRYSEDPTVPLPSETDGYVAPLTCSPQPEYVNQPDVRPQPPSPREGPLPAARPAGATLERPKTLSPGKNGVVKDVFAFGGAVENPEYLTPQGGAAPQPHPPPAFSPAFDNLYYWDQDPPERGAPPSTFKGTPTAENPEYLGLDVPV
Chain of EGFR wt (P00533 25-1210): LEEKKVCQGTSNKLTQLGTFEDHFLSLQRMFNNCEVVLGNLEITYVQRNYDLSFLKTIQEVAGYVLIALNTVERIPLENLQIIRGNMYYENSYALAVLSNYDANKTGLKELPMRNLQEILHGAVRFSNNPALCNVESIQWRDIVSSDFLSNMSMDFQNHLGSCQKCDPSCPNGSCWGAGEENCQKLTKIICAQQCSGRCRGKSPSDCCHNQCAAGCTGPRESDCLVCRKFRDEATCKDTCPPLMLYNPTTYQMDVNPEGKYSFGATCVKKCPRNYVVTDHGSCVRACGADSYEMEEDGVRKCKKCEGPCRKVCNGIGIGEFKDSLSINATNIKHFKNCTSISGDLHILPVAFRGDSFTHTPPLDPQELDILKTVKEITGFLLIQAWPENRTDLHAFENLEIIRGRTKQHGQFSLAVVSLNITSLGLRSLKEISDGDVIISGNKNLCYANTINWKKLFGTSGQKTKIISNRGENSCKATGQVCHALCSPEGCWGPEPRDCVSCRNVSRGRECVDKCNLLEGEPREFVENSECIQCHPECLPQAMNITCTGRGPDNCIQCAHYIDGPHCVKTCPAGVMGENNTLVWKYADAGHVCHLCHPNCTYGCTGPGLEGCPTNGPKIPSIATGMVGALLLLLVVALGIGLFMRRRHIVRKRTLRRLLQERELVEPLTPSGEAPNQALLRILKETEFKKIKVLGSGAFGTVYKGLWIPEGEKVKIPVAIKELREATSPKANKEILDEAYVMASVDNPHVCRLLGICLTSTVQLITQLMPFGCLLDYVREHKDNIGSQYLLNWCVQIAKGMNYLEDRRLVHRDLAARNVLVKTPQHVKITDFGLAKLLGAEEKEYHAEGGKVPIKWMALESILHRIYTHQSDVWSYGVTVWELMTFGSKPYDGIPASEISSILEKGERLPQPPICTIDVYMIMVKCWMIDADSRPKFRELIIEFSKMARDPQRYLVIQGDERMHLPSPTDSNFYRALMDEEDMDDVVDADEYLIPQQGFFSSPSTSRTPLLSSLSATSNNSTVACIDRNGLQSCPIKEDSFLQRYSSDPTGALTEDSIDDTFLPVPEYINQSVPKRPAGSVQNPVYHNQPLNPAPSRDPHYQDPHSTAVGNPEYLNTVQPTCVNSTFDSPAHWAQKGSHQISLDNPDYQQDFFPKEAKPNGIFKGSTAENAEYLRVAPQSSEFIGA
T1 sequence (P04626 with tags, fused parts or gaps INS775YVMA): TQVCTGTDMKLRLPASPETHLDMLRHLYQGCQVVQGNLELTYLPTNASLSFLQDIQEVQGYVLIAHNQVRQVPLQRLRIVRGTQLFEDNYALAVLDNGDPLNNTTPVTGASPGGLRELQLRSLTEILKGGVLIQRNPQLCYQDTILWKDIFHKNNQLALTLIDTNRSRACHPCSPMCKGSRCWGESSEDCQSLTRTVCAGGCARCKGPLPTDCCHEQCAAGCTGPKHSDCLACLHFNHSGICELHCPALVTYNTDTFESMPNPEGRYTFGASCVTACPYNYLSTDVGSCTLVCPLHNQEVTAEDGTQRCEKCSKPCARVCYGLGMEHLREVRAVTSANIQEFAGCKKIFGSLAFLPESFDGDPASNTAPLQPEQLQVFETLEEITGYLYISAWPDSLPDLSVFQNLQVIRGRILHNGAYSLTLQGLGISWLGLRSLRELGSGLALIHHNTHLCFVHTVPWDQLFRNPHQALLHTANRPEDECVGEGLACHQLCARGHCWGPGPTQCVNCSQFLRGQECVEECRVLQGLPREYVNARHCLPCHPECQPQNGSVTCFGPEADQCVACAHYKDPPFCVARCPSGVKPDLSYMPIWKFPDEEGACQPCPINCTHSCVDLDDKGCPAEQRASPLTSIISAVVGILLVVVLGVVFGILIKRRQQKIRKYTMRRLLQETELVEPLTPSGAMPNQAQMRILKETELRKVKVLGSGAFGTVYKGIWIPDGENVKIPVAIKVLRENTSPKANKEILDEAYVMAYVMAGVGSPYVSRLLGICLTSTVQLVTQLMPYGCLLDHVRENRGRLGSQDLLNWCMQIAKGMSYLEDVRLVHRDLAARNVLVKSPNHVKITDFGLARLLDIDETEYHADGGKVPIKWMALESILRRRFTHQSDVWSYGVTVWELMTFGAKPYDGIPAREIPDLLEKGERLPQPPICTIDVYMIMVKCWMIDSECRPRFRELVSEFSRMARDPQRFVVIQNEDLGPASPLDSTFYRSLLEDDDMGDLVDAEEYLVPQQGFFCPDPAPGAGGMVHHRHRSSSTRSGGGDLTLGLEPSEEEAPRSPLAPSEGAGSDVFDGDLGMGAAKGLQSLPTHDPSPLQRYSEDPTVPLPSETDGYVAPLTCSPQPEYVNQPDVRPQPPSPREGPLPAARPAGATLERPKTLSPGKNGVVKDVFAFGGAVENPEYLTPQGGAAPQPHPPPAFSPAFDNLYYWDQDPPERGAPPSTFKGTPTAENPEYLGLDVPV

In general, IC50 refers to the concentration that gives 50% inhibition. As to `C=CC(=O)Nc1cc(-c2c(-c3cccc(N4CCN(C)CC4)c3)[nH]c3nccc(Cl)c23)ccc1C` [Example 17, N-(5-(4-chloro-2-(3-(4-methylpiperazin-1-yl)phenyl)-1H-pyrrolo[2,3-b]pyridin-3-yl)-2-methylphenyl)acrylamide], the GI50 in data set [1] and in data set [9] was 100 to 500 nM in each case. For the same molecule, the IC50 was 100 to 500 nM in data set [2]; 100 to 500 nM in data set [3]; no more than 100 nM in data set [5]; no more than 100 nM in [6]; no more than 100 nM in data set [7]; no more than 100 nM in data set [8]. Moreover, in [4], the “Stability in presence of mouse liver microsomes without cofactor NADPH [% remaining after 50 min]” value is 90 % remaining after 50 min.

For the molecule `C=CC(=O)N1CCc2ccc(-c3c(-c4ccc(CN(C)C)cc4)[nH]c4nccc(Cl)c34)cc21` [Example 61, 1-(6-(4-chloro-2-(4-((dimethylamino)methyl)phenyl)-1H-pyrrolo[2,3-b]pyridin-3-yl)indolin-1-yl)prop-2-en-1-one], the GI50 in data set [1] and in data set [9] was 100 to 500 nM in each case. For the same molecule, the IC50 is 500 to 1000 nM in data set [2]; 100 to 500 nM in [3]; no more than 100 nM in [5]; no more than 100 nM in data set [6]; no more than 100 nM in [7]; no more than 100 nM in [8]. Further, the “Stability in presence of mouse liver microsomes without cofactor NADPH [% remaining after 50 min]” value in data set [4] is reported as greater than 99 % remaining after 50 min.

For `C=CC(=O)Nc1cc(-c2c(-c3ccc(C4CCN(C)CC4)cc3)[nH]c3nccc(Cl)c23)ccc1C` [Example 3, N-(5-(4-chloro-2-(4-(1-methylpiperidin-4-yl)phenyl)-1H-pyrrolo[2,3-b]pyridin-3-yl)-2-methylphenyl)acrylamide], the GI50 in data set [1] and in data set [9] was no more than 100 nM in each case. The IC50 in [2] was 100 to 500 nM; in data set [3], 100 to 500 nM; in data set [5], no more than 100 nM; in [6], no more than 100 nM; in data set [7], no more than 100 nM; in data set [8], no more than 100 nM. The “Stability in presence of mouse liver microsomes without cofactor NADPH [% remaining after 50 min]” value in data set [4] is reported as greater than 99 % remaining after 50 min.

Regarding `C=CC(=O)N1CCCc2ccc(-c3c(-c4ccc(N5CCN(C)CC5)cc4)[nH]c4nccc(Cl)c34)cc21` [Example 86, 1-(7-(4-chloro-2-(4-(4-methylpiperazin-1-yl)phenyl)-1H-pyrrolo[2,3-b]pyridin-3-yl)-3,4-dihydroquinolin-1(2H)-yl)prop-2-en-1-one 2,2,2-trifluoroacetate], the GI50 in data set [1] and in data set [9] was 500 to 1000 nM each time. Further, the IC50 in data set [2] is 1000 to 100000 nM; in [3], 1000 to 100000 nM; in [5] it was no more than 100 nM; in [6] it was no more than 100 nM; in [7], no more than 100 nM; in [8], 100 to 500 nM. Besides, the “Stability in presence of mouse liver microsomes without cofactor NADPH [% remaining after 50 min]” value in data set [4] is given as greater than 99 % remaining after 50 min.

On to `C=CC(=O)N1CCc2ccc(-c3c(-c4ccc(N5CCN(C)CC5)cc4)[nH]c4nccc(Cl)c34)cc21` [Example 56, 1-(6-(4-chloro-2-(4-(4-methylpiperazin-1-yl)phenyl)-1H-pyrrolo[2,3-b]pyridin-3-yl)indolin-1-yl)prop-2-en-1-one], for which the GI50 in [1] and in [9] was 100 to 500 nM throughout. Further, the IC50 in data set [2] was 500 to 1000 nM; in data set [3], 500 to 1000 nM; in data set [5] it was no more than 100 nM; in data set [6] it was no more than 100 nM; in data set [7] it was no more than 100 nM; in [8] it was no more than 100 nM. In addition, the “Stability in presence of mouse liver microsomes without cofactor NADPH [% remaining after 50 min]” value in data set [4] is recorded as greater than 99 % remaining after 50 min.

For `C=CC(=O)Nc1cc(-c2c(-c3ccc(C4CCN(C)CC4)cc3)[nH]c3nccc(OC)c23)ccc1C` [Example 73, N-(5-(4-methoxy-2-(4-(1-methylpiperidin-4-yl)phenyl)-1H-pyrrolo[2,3-b]pyridin-3-yl)-2-methylphenyl)acrylamide], the GI50 in [1] and in data set [9] was no more than 100 nM in each case. The IC50 in data set [2] was 100 to 500 nM; in [3] it was 100 to 500 nM; in data set [5], no more than 100 nM; in [6], no more than 100 nM; in data set [7], no more than 100 nM; in data set [8], no more than 100 nM. The “Stability in presence of mouse liver microsomes without cofactor NADPH [% remaining after 50 min]” value in data set [4] is 99 % remaining after 50 min.

`C=CC(=O)N1CCc2ccc(-c3c(-c4ccc(N5CCN(C)CC5)c(F)c4)[nH]c4nccc(Cl)c34)cc21` [Example 57, 1-(6-(4-chloro-2-(3-fluoro-4-(4-methylpiperazin-1-yl)phenyl)-1H-pyrrolo[2,3-b]pyridin-3-yl)indolin-1-yl)prop-2-en-1-one]: the GI50 in data set [1] was in the range of 100 to 500 nM; in [9], 500 to 1000 nM. Further, the IC50 in data set [2] is 1000 to 100000 nM; in [3], 1000 to 100000 nM; in data set [5], no more than 100 nM; in data set [6], no more than 100 nM; in data set [7] it was no more than 100 nM; in data set [8] it was 100 to 500 nM. In addition, the “Stability in presence of mouse liver microsomes without cofactor NADPH [% remaining after 50 min]” value in data set [4] is greater than 99 % remaining after 50 min.

As for `C=CC(=O)N1CCc2ccc(-c3c(-c4ccc(CN5CCN(C)CC5)cc4)[nH]c4nccc(Cl)c34)cc21` [Example 60, 1-(6-(4-chloro-2-(4-((4-methylpiperazin-1-yl)methyl)phenyl)-1H-pyrrolo[2,3-b]pyridin-3-yl)indolin-1-yl)prop-2-en-1-one], the GI50 in data set [1] and in data set [9] was 100 to 500 nM throughout. The 50% inhibitory concentration (IC50) in data set [2] was 500 to 1000 nM; in data set [3] it was 500 to 1000 nM; in [5], no more than 100 nM; in data set [6] it was no more than 100 nM; in [7], no more than 100 nM; in data set [8] it was 100 to 500 nM. Further, the “Stability in presence of mouse liver microsomes without cofactor NADPH [% remaining after 50 min]” value in data set [4] is listed as greater than 99 % remaining after 50 min.

`C=CC(=O)N1CCc2ccc(-c3c(-c4ccc(N5CCN(C(C)=O)CC5)cc4)[nH]c4nccc(Cl)c34)cc21` [Example 58, 1-(6-(2-(4-(4-acetylpiperazin-1-yl)phenyl)-4-chloro-1H-pyrrolo[2,3-b]pyridin-3-yl)indolin-1-yl)prop-2-en-1-one]: the GI50 in [1] and in [9] was 1000 to 10000 nM each time. The IC50 was 1000 to 100000 nM in data set [2]; 1000 to 100000 nM in data set [3]; no more than 100 nM in data set [5]; no more than 100 nM in data set [6]; no more than 100 nM in data set [7]; 100 to 500 nM in [8]. Besides, the “Stability in presence of mouse liver microsomes without cofactor NADPH [% remaining after 50 min]” value in [4] is recorded as greater than 99 % remaining after 50 min.
